Measured values published in patent US10745398B2, “2-(het)aryl-substituted fused heterocycle derivatives as pesticides” (Bayer CropScience Aktiengesellschaft, priority 2015, dated 2020).

Assays:
[1] = tested on: unfed adult cat fleas (Ctenocephalides felis); assay: Ctenocephalides felis - oral test; type: in vivo; conditions: application rate 100 ppm in citrated cattle blood, after 2 days
Protocol: (§1) Solvent: dimethyl sulphoxide
To produce a suitable active compound preparation, 10 mg of active compound are mixed with 0.5 ml of dimethyl sulphoxide. Dilution with citrated cattle blood gives the desired concentration.
About 20 unfed adult cat fleas (Ctenocephalides felis) are placed into a chamber which is closed at the top and bottom with gauze. A metal cylinder whose bottom end is closed with parafilm is placed onto the chamber. The cylinder contains the blood/active compound preparation, which can be imbibed by the fleas through the parafilm membrane.
After 2 days, the kill in % is determined. 100% means that all of the fleas have been killed; 0% means that none of the fleas have been killed.

[2] = tested on: engorged adult female cattle ticks (Boophilus microplus); assay: Boophilus microplus - injection test; type: in vivo; conditions: application rate 20 μg/animal, assessed after 7 days
Protocol: as §1
To produce a suitable active compound preparation, 10 mg of active compound are mixed with 0.5 ml of solvent and the concentrate is diluted with solvent to the desired concentration.
1 μl of the active compound solution is injected into the abdomen of 5 engorged adult female cattle ticks (Boophilus microplus). The animals are transferred into dishes and kept in a climate-controlled room.
Efficacy is assessed after 7 days by laying of fertile eggs. Eggs which are not visibly fertile are stored in a climate-controlled cabinet until the larvae hatch after about 42 days. An efficacy of 100% means that none of the ticks has laid any fertile eggs; 0% means that all the eggs are fertile.

[3] = log P (neutral) by HPLC on reversed-phase column (C 18), EEC Directive 79/831 Annex V.A8; type: physicochemical; conditions: HPLC reversed-phase C 18, 55° C., neutral range pH 7.8, ammonium hydrogencarbonate/acetonitrile
[4] = tested on: greenhouse red spider mite (Tetranychus urticae); assay: Tetranychus urticae - spray test, OP-resistant; type: in vivo; conditions: application rate 500 g/ha, bean leaf discs, after 6 days
Protocol: (§2) Solvent: 78.0 parts by weight of acetone • • 1.5 parts by weight of dimethylformamide
(§3) Emulsifier: alkylaryl polyglycol ether
(§4) To produce a suitable active compound preparation, 1 part by weight of active compound is dissolved with the stated parts by weight of solvent and made up with water containing an emulsifier concentration of 1000 ppm until the desired concentration is attained. To produce further test concentrations, the preparation is diluted with emulsifier-containing water.
Discs of bean leaves (Phaseolus vulgaris) infested with all stages of the greenhouse red spider mite (Tetranychus urticae) are sprayed with an active compound preparation of the desired concentration.
After 6 days, the efficacy in % is determined. 100% means that all the spider mites have been killed; 0% means that no spider mites have been killed.

[5] = tested on: L1 larvae of the Australian sheep blowfly (Lucilia cuprina); assay: Lucilia cuprina test; type: in vivo; conditions: application rate 100 ppm, after 2 days
Protocol: as §1
(§5) To produce a suitable active compound preparation, 10 mg of active compound are mixed with 0.5 ml of dimethyl sulphoxide, and the concentrate is diluted with water to the desired concentration.
About 20 L1 larvae of the Australian sheep blowfly (Lucilia cuprina) are transferred into a test vessel containing minced horsemeat and the active compound preparation of the desired concentration.
After 2 days, the kill in % is determined. 100% means that all the larvae have been killed; 0% means that no larvae have been killed.

[6] = tested on: green peach aphid (Myzus persicae); assay: Myzus persicae - spray test; type: in vivo; conditions: application rate 500 g/ha, Chinese cabbage leaf discs, after 5-6 days
Protocol: Solvent: 78 parts by weight of acetone • • 1.5 parts by weight of dimethylformamide
as §3, §4
Discs of Chinese cabbage leaves (Brassica pekinensis) infested by all stages of the green peach aphid (Myzus persicae) are sprayed with an active compound preparation of the desired concentration.
After 5-6 days, the efficacy in % is determined. 100% means that all the aphids have been killed; 0% means that no aphids have been killed.

[7] = tested on: larvae of the mustard beetle (Phaedon cochleariae); assay: Phaedon cochleariae - spray test; type: in vivo; conditions: application rate 500 g/ha, Chinese cabbage leaf discs, after 7 days
Protocol: as §2, §3, §4
After 7 days, the efficacy in % is determined. 100% means that all the beetle larvae have been killed; 0% means that no beetle larvae have been killed.

[8] = tested on: adult houseflies (Musca domestica); assay: Musca domestica test; type: in vivo; conditions: application rate 100 ppm, after 2 days
Protocol: as §1, §5
Vessels containing a sponge treated with sugar solution and the active compound preparation of the desired concentration are populated with 10 adult houseflies (Musca domestica).
After 2 days, the kill in % is determined. 100% means that all of the flies have been killed; 0% means that none of the flies have been killed.

[9] = tested on: caterpillars of the armyworm (Spodoptera frugiperda); assay: Spodoptera frugiperda - spray test; type: in vivo; conditions: application rate 500 g/ha, maize leaf discs, after 7 days
Protocol: as §2, §3, §4
Leaf discs of maize (Zea mays) are sprayed with an active compound preparation of the desired concentration and, after drying, populated with caterpillars of the armyworm (Spodoptera frugiperda).
After 7 days, the efficacy in % is determined. 100% means that all the caterpillars have been killed; 0% means that no caterpillar has been killed.

[10] = tested on: adult cat fleas (Ctenocephalides felis); assay: Ctenocephalides felis - in vitro contact tests with adult cat fleas; type: in vivo; conditions: application rate 5 μg/cm^2 (500 g/ha), after 48 h
Protocol: For the coating of the test tubes, 9 mg of active compound are first dissolved in 1 ml of acetone p.a. and then diluted to the desired concentration with acetone p.a. 250 μl of the solution are distributed homogeneously on the inner walls and the base of a 25 ml test tube by turning and rocking on an orbital shaker (rocking rotation at 30 rpm for 2 h). With 900 ppm active compound solution and internal surface 44.7 cm^2, given homogeneous distribution, an area-based dose of 5 μg/cm^2 is achieved.
After the solvent has evaporated off, the tubes are populated with 5-10 adult cat fleas (Ctenocephalides felis), sealed with a perforated plastic lid and incubated in a horizontal position at room temperature and ambient humidity. After 48 h, efficacy is determined. To this end, the test tubes are stood upright and the fleas are knocked to the base of the tube. Fleas which remain motionless at the base or move in an uncoordinated manner are considered to be dead or moribund.
100% efficacy means that all the fleas were dead or moribund. 0% efficacy means that no fleas were harmed.

[11] = tested on: southern root-knot nematode (Meloidogyne incognita); assay: Meloidogyne incognita test; type: in vivo; conditions: application rate 20 ppm, lettuce, after 14 days
Protocol: Solvent: 125.0 parts by weight of acetone
To produce a suitable preparation of active compound, 1 part by weight of active compound is mixed with the stated amount of solvent and the concentrate is diluted with water to the desired concentration.
Vessels are filled with sand, active compound solution, an egg/larvae suspension of the southern root-knot nematode (Meloidogyne incognita) and lettuce seeds. The lettuce seeds germinate and the plants develop. The galls develop on the roots.
After 14 days, the nematicidal efficacy in % is determined by the formation of galls. 100% means that no galls were found; 0% means that the number of galls on the treated plants corresponds to the untreated control.

chromatographic logP ([3]; reversed-phase HPLC column (C 18))	Structure (SMILES)	efficacy (kill in %) [1]	efficacy (no laying of fertile eggs) [2]	log P (neutral) [3]	efficacy (spider mites killed) [4]	efficacy (kill in %) [5]	efficacy (aphids killed) [6]	efficacy (beetle larvae killed) [7]	efficacy (kill in %) [8]	efficacy (caterpillars killed) [9]	efficacy (fleas dead or moribund) [10]	nematicidal efficacy (formation of galls) [11]
	CCS(=O)(=O)c1ccc(-n2cnn(-c3ccccc3F)c2=O)nc1-c1nc2cc(C(F)(F)F)ncc2n1C [Example I-1]	100%	80%	Example I-1: logP (neutral): 3.03 ^1H-NMR(400.0 MHz, d6-DMSO): δ =	100%	100%	90%	100%	80%	100%	100%	
	CCS(=O)(=O)c1ccc(-n2ncn(-c3ccccc3)c2=O)nc1-c1nc2cc(C(F)(F)F)ncc2n1C [Example I-15]	100%	80%	Example I-15: logP (neutral): 2.70 1H-NMR(400.0 MHz, d6-DMSO): □ =	70%	100%		100%		100%	100%	100%
	CCS(=O)(=O)c1ccc(-n2ncn(-c3cccnc3)c2=O)nc1-c1nc2cc(C(F)(F)F)ncc2n1C [Example I-17]	95%		Example I-17: logP (neutral): 2.06 1H-NMR(400.0 MHz, d6-DMSO): □ =	90%	100%	90%	100%				100%
	CCS(=O)(=O)c1ccc(-n2ncn(-c3ccccc3F)c2=O)nc1-c1nc2cc(C(F)(F)F)ncc2n1C [Example I-18]	100%	95%	Example I-18: logP (neutral): 2.73: 1H-NMR(400.0 MHz, d6-DMSO): □ =		100%	90%	100%	85%	100%	100%	
3.52	CCS(=O)(=O)c1ccc(-n2ncn(-c3ccc(Cl)cc3)c2=O)nc1-c1nc2cc(C(F)(F)F)cnc2n1C [Example I-33, 4-(4-Chlorophenyl)-2-{5-(ethylsulfonyl)-6-[3-methyl-6-(trifluoromethyl)-3H-imidazo[4,5-b]pyridin-2-yl]pyridin-2-yl}-2,4-dihydro-3H-1,2,4-triazol-3-one]				90%		90%	100%		100%		100%
